Reference: patent publication US10179801B2, “Truncated LYP-1 peptides and methods and compositions using truncated LYP-1 peptides” (SANFORD-BURNHAM MEDICAL RESEARCH INSTITUTE, priority 2011, dated 2019)
Entries after “also recorded” stand apart in the source; their conditions may differ. Ends that are not written are not given here. * marks the point of attachment. Biotin = O=C1N[C@H]2[C@H](CS[C@H]2CCCCC(=O)*)N1

Experiments:
[1] = test system: tumor; settings: CGKRK by itself; cited from earlier work
[2] = test system: PPC1 cells; assay: Phage binding and internalization into PPC1 cells (confocal microscopy); assay type: cell-based, human; settings: 30 min pre-incubation, increasing concentrations, phage 2 h
Protocol: (§1) Cells were grown on collagen I-coated coverslips (BD Biosciences) for 24-72 h. After 4% PFA fixation, cells were stained with antibodies following the same procedure as for tumor sections, and mounted in DAPI-containing mounting media. For phage binding assay, 10^9 pfu of phage in cell culture medium were incubated for 1-2 h. When neutravidin-peptide inhibitors were used, they were added to the cell medium 30 min prior to phage incubation. Neutravidin alone, at the maximum concentration used in the assay, was used as a control. Cells were examined on a Fluoview 500 confocal microscope (Olympus America).
Phage were detected by staining with anti-T7 phage polyclonal antibody. Nuclei were stained with DAPI. […] Cells were co-stained for NRP1 and nuclei were stained with DAPI. […] Non-conjugated neutravidin was used as a control. Nuclei were stained with DAPI. Cells were analyzed by confocal microscopy.

[3] = test system: MDA-MB-435 cells; assay: Phage binding and internalization into MDA-MB-435 cells (confocal microscopy); assay type: cell-based, human; settings: 30 min pre-incubation, increasing concentrations, phage 2 h
Protocol: as §1
Cells were co-stained for NRP2 and nuclei were stained with DAPI. […] Non-conjugated neutravidin was used as a control. Nuclei were stained with DAPI.
Having established that tLyP-1, but not LyP-1, binds to NRP1 and NRP2, but both peptides internalize into tumor cells, it was realized that LyP-1 is converted into tLyP-1 and that the two peptides are taken up by cells through the CendR pathway. The effect of an excess of tLyP-1 on LyP-1 internalization was tested. […] After 30 min pre-incubation with increasing concentrations of neutravidin-tLyP-1 peptide, MDA-MB-435 cells were incubated with LyP-1 phage for 2 h. Phage were stained with anti-T7 antibody. Nuclei were stained with DAPI.

[4] = test system: 4T1 tumors; assay: FAM-peptide homing in 4T1 tumor bearing mice; assay type: in vivo, BALB/c mice; settings: i.v., 1 h circulation
Protocol: To produce 4T1 tumors, BALB/c mice were orthotopically injected into the mammary fat pad with 10^6 cells suspended in 100 μL of PBS. To produce MDA-MB-435 breast tumors, BALB/C athymic nude mice were orthotopically injected into the mammary fat pad with 2×10^6 cells suspended in 100 μL of PBS.
4T1 tumor bearing BALB/c mice and MDA-MB-435 tumor bearing nude mice were intravenously injected with respectively 150 μL and 100 μL of 1 mM FAM-labeled synthetic peptides. After 1 h circulation, mice were perfused and tissues were collected and observed under UV light (Illuma—tool Bright Light System LT-9900) and processed for immunofluorescence analysis.
150 μl of 1 mM FAM-tLyP-1 or control FAM-[…] was intravenously injected into 4T1 tumor bearing mice. The peptides were allowed to circulate for 1 h and tumors and organs were collected and viewed under UV light. […] FAM-tLyP-1 (100 μl of 1 mM) was intravenously injected into MDA-MB-435 tumor bearing mice. The peptide was allowed to circulate for 45 min, and tumor and organs were collected and viewed under UV light. […] Confocal microscope images were made of the tumor and of normal organs after 1 h of FAM-tLyP-1 circulation in 4T1 tumor bearing mice.

[5] = target: T1, NRP1 (Homo sapiens, UniProt O14786); assay: Phage binding to DU145 cells with ligand-blocking anti-NRP1; assay type: cell-based; settings: 4° C.
T1 construct: endogenous in cells; host or cells: DU145 prostate carcinoma cells
Protocol: To measure phage binding on cells, 2×10^5 suspended cells were incubated with 7×10^8 pfu/mL of T7 phage in DMEM/BSA 1% for 1 h at 4° C. Ligand-blocking antibodies or control goat IgG isotype (10 μg/sample) were added 30 min prior to phage incubation. The cells were washed four times with DMEM/BSA 1%, and lysed with lysogeny broth containing 1% Nonidet P-40 (LB/NP40) before phage titration.
The role of the CendR motif in the LyP-1 peptide was investigated by testing the binding of phage displaying the predicted active CendR fragment CGNKRTR (tLyP-1 for truncated LyP-1; SEQ ID NO:4) and other truncated forms of LyP-1 to cultured tumor cells. DU145 prostate carcinoma cells were used, which express NRP1, but not NRP2 (FIG. 6). As these peptides could have other receptors on the DU145 cells, inhibition of cell binding by a function-blocking anti-NRP1 antibody was used as an indicator of NRP1 dependence of phage binding. […] This is supported by recent modeling studies showing that glycine-containing peptides (G7 (SEQ ID NO:104), G3RG3 (SEQ ID NO:105), and G4RG2 SEQ ID NO:106) were able to dock in NRP1 binding pocket without major deformation of the receptor structure (Haspel et al, 2011).

[6] = target: T2, p32 (Homo sapiens, UniProt Q07021); assay: ELISA-based saturation assay of FAM-peptides on purified p32; assay type: binding; settings: wells coated with 3 μg/mL p32, 37° C. 1 h
T2 sequence (Q07021 74-282): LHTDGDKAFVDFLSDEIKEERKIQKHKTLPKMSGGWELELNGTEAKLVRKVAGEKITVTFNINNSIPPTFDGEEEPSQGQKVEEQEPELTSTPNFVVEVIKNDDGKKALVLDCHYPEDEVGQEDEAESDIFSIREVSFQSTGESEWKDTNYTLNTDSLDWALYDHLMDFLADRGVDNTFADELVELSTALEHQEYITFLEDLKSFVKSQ
Protocol: Binding of FAM-tLyP-1 and FAM-LyP-1 to p32 was measured by an ELISA-based assay. Microtiter wells coated with 3 μg/mL of purified p32 (Fogal et al, 2008) were incubated with increasing concentrations of FAM-peptides at 37° C. for 1 h. After washing with cold PBS added with 0.01% Tween 20 and 0.2 M NaCl, fluorescence was read at 495 nm.
(§2) The MDA-MB-435 cells express the cell surface LyP-1 primary receptor p32 (Fogal et al, 2008). To test whether internalization of tLyP-1 and LyP-1 could occur through this receptor, tLyP-1 capacity to bind p32 was explored. […] Thus, only the intact LyP-1 peptide binds to p32.

[7] = target: T3, p32 (Mus musculus, UniProt O35658); assay: Affinity chromatography of 4T1 breast tumor extracts on tLyP-1; assay type: binding; settings: data not shown
T3 construct: from tissue; host or cells: 4T1 breast tumor extracts (orthotopic tumors in BALB/c mice)
T3 sequence (O35658 71-278): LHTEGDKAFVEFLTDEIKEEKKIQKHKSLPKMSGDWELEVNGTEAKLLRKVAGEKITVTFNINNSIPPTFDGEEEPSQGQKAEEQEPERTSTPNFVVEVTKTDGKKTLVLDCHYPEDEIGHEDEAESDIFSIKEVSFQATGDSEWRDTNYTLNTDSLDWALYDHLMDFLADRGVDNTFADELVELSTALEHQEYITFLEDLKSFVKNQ
Description: as §2

[8] = test system: tumor; assay: Tumor penetration of a compound co-administered with tLyP-1; assay type: in vivo; settings: tLyP-1 peptide injected together with CGKRK; confocal microscopy
Description: Thus, tLyP-1 can also induce penetration of a co-administered compound.

T1 sequence (O14786 22-923): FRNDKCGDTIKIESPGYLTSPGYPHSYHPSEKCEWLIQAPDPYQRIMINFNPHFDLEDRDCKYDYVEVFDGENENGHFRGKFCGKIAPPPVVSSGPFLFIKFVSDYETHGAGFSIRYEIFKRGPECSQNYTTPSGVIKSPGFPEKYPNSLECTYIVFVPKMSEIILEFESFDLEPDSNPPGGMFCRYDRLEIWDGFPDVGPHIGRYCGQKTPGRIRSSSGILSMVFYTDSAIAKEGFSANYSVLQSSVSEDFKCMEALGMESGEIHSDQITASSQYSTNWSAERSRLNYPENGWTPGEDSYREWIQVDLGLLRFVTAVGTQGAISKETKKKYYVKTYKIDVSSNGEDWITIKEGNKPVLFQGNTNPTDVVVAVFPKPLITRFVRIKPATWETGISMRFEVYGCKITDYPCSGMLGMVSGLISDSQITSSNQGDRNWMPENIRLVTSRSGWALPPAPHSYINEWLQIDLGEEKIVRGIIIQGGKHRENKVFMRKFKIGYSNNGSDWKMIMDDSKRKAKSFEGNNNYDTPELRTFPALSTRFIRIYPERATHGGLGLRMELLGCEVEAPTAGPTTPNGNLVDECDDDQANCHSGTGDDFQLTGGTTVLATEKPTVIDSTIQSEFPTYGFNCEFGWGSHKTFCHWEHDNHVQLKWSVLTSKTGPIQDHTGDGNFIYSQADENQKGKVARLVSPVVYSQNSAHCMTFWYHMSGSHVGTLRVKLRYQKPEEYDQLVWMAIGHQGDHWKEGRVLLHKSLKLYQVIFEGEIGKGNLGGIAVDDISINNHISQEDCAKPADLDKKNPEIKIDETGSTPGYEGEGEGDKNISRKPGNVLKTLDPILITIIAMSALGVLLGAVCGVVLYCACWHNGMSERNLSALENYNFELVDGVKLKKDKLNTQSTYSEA

CGKRK [tumor-homing peptide]
Exit from blood vessels of peptide alone [1]: unable to get out of blood vessels by itself

oligomeric RPARPAR peptide: tetrameric biotinylated RPARPAR peptide conjugated with neutravidin (Biotin-RPARPAR; not fully specified (C-terminus); also: tetrameric, biotinylated, conjugated with neutravidin)
Inhibition of tLyP-1 phage internalization into PPC1 cells [2]: inhibited in a dose-dependent manner
Inhibition of tLyP-1 phage binding and internalization in MDA-MB-435 cells [3]: blocked the binding and internalization

FAM-ARALPSQRSR: control peptide, fluorescein-labeled ARALPSQRSR (not fully specified; fluorescein label)
Tumor fluorescence / accumulation of FAM-peptide [4]: did not accumulate in the tumors; also recorded: absence of fluorescence

CGNKRTRG
Effect of ligand-blocking anti-NRP1 on phage binding to DU145 cells (in words) [5]: mild reproducible decrease

CGNKR
Effect of ligand-blocking anti-NRP1 on phage binding to DU145 cells (in words) [5]: not enough to confer significant ability to bind to NRP1

CGNK
Effect of ligand-blocking anti-NRP1 on phage binding to DU145 cells (in words) [5]: not enough to confer significant ability to bind to NRP1

CGNKRTR [tLyP-1, truncated form of LyP-1, in which CendR motif is exposed]
Binding to purified p32 [6]: low binding
Binding of p32 from tumor extract to peptide affinity matrix [7]: no binding of p32
Tumor penetration of co-injected CGKRK [8]: enhanced tumor penetration of CGKRK
